Article PMC6544242, “Development and validation of a multiplex UHPLC-MS/MS method for the determination of the investigational antibiotic against multi-resistant tuberculosis macozinone (PBTZ169) and five active metabolites in human plasma” (PLoS ONE, 2019)
Read-outs that look alike come from different tables or passages of the source.

What was measured:
[1] = for % from t0: processed extract sample, 24h
[2] = 24 h
[3] = human
[4] = human, 6 h
[5] = test system: Mycobacterium tuberculosis; conditions: in vitro, Mycobacterium tuberculosis; cited from earlier work
[6] = test system: bacteria (general anti-bacterial activity); set-up: method as in PMID 24500695; conditions: cited from earlier work
[7] = test system: Mycobacterium tuberculosis; set-up: method as in PMID 20086151, PMID 22926573, PMID 25987624, PMID 30126954; conditions: preclinical models; cited from earlier work

Compound: O=c1nc(N2CCN(CC3CCCCC3)CC2)sc2c([N+](=O)[O-])cc(C(F)(F)F)cc12 [PBTZ169, macozinone]
- change in processed samples ([1]; after 24h at RT, medium level): -30%
- % from t0 ([1]; 4°C, level H (QC 1500 ng/mL)): -15%
- % from t0 ([1]; 4°C, level L (QC 2 ng/mL)): 5%
- % from t0 ([1]; 4°C, level M (QC 150 ng/mL)): -7%
- % from t0 ([1]; RT, level H (QC 1500 ng/mL)): -8%
- % from t0 ([1]; RT, level L (QC 2 ng/mL)): -3%
- % from t0 ([1]; RT, level M (QC 150 ng/mL)): 2%
- time stable in citrated human plasma [2]: at least 24 h
- % from t0 ([3]; 1 h, 10 ng/mL): 1%
- % from t0 ([3]; 1 h, 20 ng/mL): 2%
- % from t0 ([3]; 1 h, 50 ng/mL): -1%
- % from t0 ([3]; 1 h, 100 ng/mL): 3%
- % from t0 ([3]; 1 h, 200 ng/mL): 1%
- % from t0 ([3]; 1 h, 500 ng/mL): 0%
- % from t0 ([3]; 2 h, 10 ng/mL): 0%
- % from t0 ([3]; 2 h, 20 ng/mL): 2%
- % from t0 ([3]; 2 h, 50 ng/mL): -3%
- % from t0 ([3]; 2 h, 100 ng/mL): -1%
- % from t0 ([3]; 2 h, 200 ng/mL): -3%
- % from t0 ([3]; 2 h, 500 ng/mL): -4%
- % from t0 ([3]; 4 h, 10 ng/mL): -1%
- % from t0 ([3]; 4 h, 20 ng/mL): -1%
- % from t0 ([3]; 4 h, 50 ng/mL): -7%
- % from t0 ([3]; 4 h, 100 ng/mL): 0%
- % from t0 ([3]; 4 h, 200 ng/mL): -2%
- % from t0 ([3]; 4 h, 500 ng/mL): -3%
- % from freshly processed samples (n=2) ([4]; 0.1 ng/mL): 19%
- % from freshly processed samples (n=2) ([4]; 0.2 ng/mL): 11%
- % from freshly processed samples (n=2) ([4]; 0.5 ng/mL): -12%
- % from freshly processed samples (n=2) ([4]; 1 ng/mL): -4%
- % from freshly prepared samples ([4]; 2 ng/mL): 5%
- % from freshly processed samples (n=2) ([4]; 2 ng/mL): -3%
- % from freshly processed samples (n=2) ([4]; 50 ng/mL): 7%
- % from freshly prepared samples ([4]; 150 ng/mL): -3%
- % from freshly processed samples (n=2) ([4]; 500 ng/mL): -4%
- % from freshly processed samples (n=2) ([4]; 1000 ng/mL): -10%
- % from freshly prepared samples ([4]; 1500 ng/mL): -7%
- % from freshly processed samples (n=2) ([4]; 2000 ng/mL): -1%
- minimum inhibitory concentration (MIC) [5]: below 0.0005 μg/mL
- general anti-bacterial activity [6]: no general anti-bacterial activity
- effect in combination with clofazimine or bedaquiline [7]: synergistic effect
- effect in combination with isoniazide, moxifloxacin, rifampicin [7]: additive effect
